From ChEMBL document CHEMBL5625170, “Design, synthesis, and biological evaluation of novel penindolone derivatives as potential inhibitors of hemagglutinin-mediated membrane fusion” (Eur J Med Chem, 2023)

test system: Influenza A virus; experiment: Anti-viral activity against Influenza A virus amantadine-resistant strain (A/Puerto Rico/8/34) infected in MDCK cells assessed as inhibition of virus cytopathic effect measured after 48 hrs by crystal violet staining based assay; assay type: functional, organism-based; conditions: A/Puerto Rico/8/34, MDCK

SMILES | IC50
CC(=O)c1cc(C)c(O)c(Cc2[nH]c3ccccc3c2Cc2c(O)c(C)cc(C(C)=O)c2O)c1O | 25.5 µM
CC(=O)c1cc(C)c(O)c(Cc2[nH]c3ccc(C)cc3c2Cc2c(O)c(C)cc(C(C)=O)c2O)c1O | 20.6 µM
CC(=O)c1cc(C)c(O)c(Cc2[nH]c3ccc(-c4ccc5ncccc5c4)cc3c2Cc2c(O)c(C)cc(C(C)=O)c2O)c1O | 18.5 µM
COc1cccc(OC)c1-c1ccc2[nH]c(Cc3c(O)c(C)cc(C(C)=O)c3O)c(Cc3c(O)c(C)cc(C(C)=O)c3O)c2c1 | 21 µM
COc1cccc(OC)c1-c1ccc2c(Cc3c(O)c(C)cc(C(C)=O)c3O)c(Cc3c(O)c(C)cc(C(C)=O)c3O)[nH]c2c1 | 19.5 µM
C=CCn1c(Cc2c(O)c(C)cc(C(C)=O)c2O)c(Cc2c(O)c(C)cc(C(C)=O)c2O)c2ccccc21 | > 30 µM
CC(=O)c1cc(C)c(O)c(Cc2[nH]c3ccc(-c4cc(C(F)(F)F)cc(C(F)(F)F)c4)cc3c2Cc2c(O)c(C)cc(C(C)=O)c2O)c1O | > 30 µM
CC(=O)c1cc(C)c(O)c(Cc2[nH]c3ccc(-c4cc(C)cc(C)c4)cc3c2Cc2c(O)c(C)cc(C(C)=O)c2O)c1O | 13.5 µM
CC(=O)c1cc(C)c(O)c(Cc2[nH]c3cc(-c4ccc5c(c4)CCO5)ccc3c2Cc2c(O)c(C)cc(C(C)=O)c2O)c1O | > 30 µM
COc1ccc2cc(-c3ccc4c(Cc5c(O)c(C)cc(C(C)=O)c5O)c(Cc5c(O)c(C)cc(C(C)=O)c5O)[nH]c4c3)ccc2c1 | 23.3 µM
CC(=O)c1cc(C)c(O)c(Cc2c(Cc3c(O)c(C)cc(C(C)=O)c3O)n(Cc3ccc(Cl)cc3)c3ccccc23)c1O | > 30 µM
CC(=O)c1cc(C)c(O)c(Cc2[nH]c3cc(-c4c5ccccc5c(-c5ccccc5)c5ccccc45)ccc3c2Cc2c(O)c(C)cc(C(C)=O)c2O)c1O | > 30 µM
CC(=O)c1cc(C)c(O)c(Cc2[nH]c3cc(-c4cccc(F)c4)ccc3c2Cc2c(O)c(C)cc(C(C)=O)c2O)c1O | > 30 µM
CC(=O)c1cc(C)c(O)c(Cc2[nH]c3ccc(-c4ccc(C)cc4)cc3c2Cc2c(O)c(C)cc(C(C)=O)c2O)c1O | 15.5 µM
CC(=O)c1cc(C)c(O)c(Cc2[nH]c3cc(-c4cccc(O)c4)ccc3c2Cc2c(O)c(C)cc(C(C)=O)c2O)c1O | > 30 µM
COc1cc(-c2ccc3c(Cc4c(O)c(C)cc(C(C)=O)c4O)c(Cc4c(O)c(C)cc(C(C)=O)c4O)[nH]c3c2)cc(OC)c1OC | 20.1 µM
CC(=O)c1cc(C)c(O)c(Cc2[nH]c3ccc(-c4cccc(O)c4)cc3c2Cc2c(O)c(C)cc(C(C)=O)c2O)c1O | > 30 µM
CC(=O)c1cc(C)c(O)c(Cc2[nH]c3cc(-c4ccc(Cl)cc4)ccc3c2Cc2c(O)c(C)cc(C(C)=O)c2O)c1O | > 30 µM
CSc1ccc(-c2ccc3[nH]c(Cc4c(O)c(C)cc(C(C)=O)c4O)c(Cc4c(O)c(C)cc(C(C)=O)c4O)c3c2)cc1 | 17.5 µM
CC(=O)c1cc(C)c(O)c(Cc2[nH]c3ccc(-c4ccccc4F)cc3c2Cc2c(O)c(C)cc(C(C)=O)c2O)c1O | > 30 µM
COc1ccc(-c2ccc3c(Cc4c(O)c(C)cc(C(C)=O)c4O)c(Cc4c(O)c(C)cc(C(C)=O)c4O)[nH]c3c2)cc1OC | 19.7 µM
CC(=O)c1cc(C)c(O)c(Cc2c(Cc3c(O)c(C)cc(C(C)=O)c3O)n(Cc3ccccc3)c3ccccc23)c1O | > 30 µM
CC(=O)c1cc(C)c(O)c(Cc2[nH]c3cc(-c4cc(C(C)(C)C)cc(C(C)(C)C)c4)ccc3c2Cc2c(O)c(C)cc(C(C)=O)c2O)c1O | 26.8 µM

SMILES | IC50
CC(=O)c1cc(C)c(O)c(Cc2[nH]c3ccc(-c4c5ccccc5cc5ccccc45)cc3c2Cc2c(O)c(C)cc(C(C)=O)c2O)c1O | 6.7 µM
CC(=O)c1cc(C)c(O)c(Cc2[nH]c3ccc(Br)cc3c2Cc2c(O)c(C)cc(C(C)=O)c2O)c1O | 25.2 µM
CC(=O)c1cc(C)c(O)c(Cc2[nH]c3ccc(-c4c5ccccc5c(-c5ccccc5)c5ccccc45)cc3c2Cc2c(O)c(C)cc(C(C)=O)c2O)c1O | > 30 µM
CC(=O)c1cc(C)c(O)c(Cc2[nH]c3cc(-c4ccccc4)ccc3c2Cc2c(O)c(C)cc(C(C)=O)c2O)c1O | 23.4 µM
COc1ccc(Cn2c(Cc3c(O)c(C)cc(C(C)=O)c3O)c(Cc3c(O)c(C)cc(C(C)=O)c3O)c3ccccc32)cc1 | > 30 µM
CC(=O)c1cc(C)c(O)c(Cc2[nH]c3cc(-c4ccc5ccccc5c4)ccc3c2Cc2c(O)c(C)cc(C(C)=O)c2O)c1O | 26 µM
CC(=O)c1cc(C)c(O)c(Cc2[nH]c3ccc(-c4cc(C(C)(C)C)cc(C(C)(C)C)c4)cc3c2Cc2c(O)c(C)cc(C(C)=O)c2O)c1O | > 30 µM
CC(=O)c1cc(C)c(O)c(Cc2[nH]c3cc(-c4ccc(C)cc4)ccc3c2Cc2c(O)c(C)cc(C(C)=O)c2O)c1O | 24.1 µM
CC(=O)c1cc(C)c(O)c(Cc2[nH]c3cc(/C=C/c4ccccc4)ccc3c2Cc2c(O)c(C)cc(C(C)=O)c2O)c1O | > 30 µM
CC(=O)c1cc(C)c(O)c(Cc2[nH]c3ccc(-c4ccc5ccccc5c4)cc3c2Cc2c(O)c(C)cc(C(C)=O)c2O)c1O | 20.7 µM
CC(=O)c1cc(C)c(O)c(Cc2[nH]c3ccc(-c4ccc5c(c4)CCO5)cc3c2Cc2c(O)c(C)cc(C(C)=O)c2O)c1O | > 30 µM
CC(=O)c1cc(C)c(O)c(Cc2[nH]c3cc(-c4ccc5cccnc5c4)ccc3c2Cc2c(O)c(C)cc(C(C)=O)c2O)c1O | > 30 µM
CC(=O)c1cc(C)c(O)c(Cc2[nH]c3cc(-c4cc(C(F)(F)F)cc(C(F)(F)F)c4)ccc3c2Cc2c(O)c(C)cc(C(C)=O)c2O)c1O | > 30 µM
COc1ccc(-c2ccc3[nH]c(Cc4c(O)c(C)cc(C(C)=O)c4O)c(Cc4c(O)c(C)cc(C(C)=O)c4O)c3c2)cc1 | 16.3 µM
CC(=O)c1cc(C)c(O)c(Cc2[nH]c3cc(-c4ccsc4)ccc3c2Cc2c(O)c(C)cc(C(C)=O)c2O)c1O | > 30 µM
COc1ccc2[nH]c(Cc3c(O)c(C)cc(C(C)=O)c3O)c(Cc3c(O)c(C)cc(C(C)=O)c3O)c2c1 | 15.9 µM
CC(=O)c1cc(C)c(O)c(Cc2[nH]c3ccc(-c4ccc(C(F)(F)F)cc4)cc3c2Cc2c(O)c(C)cc(C(C)=O)c2O)c1O | 21.9 µM
CC(=O)c1cc(C)c(O)c(Cc2c(Cc3c(O)c(C)cc(C(C)=O)c3O)n(N)c3ccccc23)c1O | > 30 µM
CC(=O)c1cc(C)c(O)c(Cc2[nH]c3cc(-c4ccc(F)cc4)ccc3c2Cc2c(O)c(C)cc(C(C)=O)c2O)c1O | 20.6 µM
CC(=O)c1cc(C)c(O)c(Cc2[nH]c3ccc(-c4csc5ccccc45)cc3c2Cc2c(O)c(C)cc(C(C)=O)c2O)c1O | 23.4 µM
CC(=O)c1cc(C)c(O)c(Cc2[nH]c3cc(-c4c5ccccc5cc5ccccc45)ccc3c2Cc2c(O)c(C)cc(C(C)=O)c2O)c1O | 8.3 µM
CSc1ccc(-c2ccc3c(Cc4c(O)c(C)cc(C(C)=O)c4O)c(Cc4c(O)c(C)cc(C(C)=O)c4O)[nH]c3c2)cc1 | 9.1 µM
CC(=O)c1cc(C)c(O)c(Cc2[nH]c3cc(-c4ccc5c(c4)OCCO5)ccc3c2Cc2c(O)c(C)cc(C(C)=O)c2O)c1O | 9.1 µM

SMILES | IC50
CC(=O)c1cc(C)c(O)c(Cc2[nH]c3cc(-c4ccccc4F)ccc3c2Cc2c(O)c(C)cc(C(C)=O)c2O)c1O | > 30 µM
COc1ccc2cc(-c3ccc4[nH]c(Cc5c(O)c(C)cc(C(C)=O)c5O)c(Cc5c(O)c(C)cc(C(C)=O)c5O)c4c3)ccc2c1 | 21.2 µM
COc1ccc(-c2ccc3[nH]c(Cc4c(O)c(C)cc(C(C)=O)c4O)c(Cc4c(O)c(C)cc(C(C)=O)c4O)c3c2)cc1OC | 18.1 µM
CC(=O)c1cc(C)c(O)c(Cc2[nH]c3ccc(Cl)cc3c2Cc2c(O)c(C)cc(C(C)=O)c2O)c1O | > 30 µM
CC(=O)c1cc(C)c(O)c(Cc2[nH]c3ccc(-c4ccc(Cl)cc4)cc3c2Cc2c(O)c(C)cc(C(C)=O)c2O)c1O | 27 µM
CC(=O)c1cc(C)c(O)c(Cc2[nH]c3cc(C)ccc3c2Cc2c(O)c(C)cc(C(C)=O)c2O)c1O | 15.1 µM
CC(=O)c1cc(C)c(O)c(Cc2[nH]c3cc(-c4csc5ccccc45)ccc3c2Cc2c(O)c(C)cc(C(C)=O)c2O)c1O | 20.9 µM
CC(=O)c1cc(C)c(O)c(Cc2[nH]c3ccc(-c4cccc(F)c4)cc3c2Cc2c(O)c(C)cc(C(C)=O)c2O)c1O | > 30 µM
COc1ccc(-c2ccc3c(Cc4c(O)c(C)cc(C(C)=O)c4O)c(Cc4c(O)c(C)cc(C(C)=O)c4O)[nH]c3c2)cc1 | 8.7 µM
COc1cc(-c2ccc3[nH]c(Cc4c(O)c(C)cc(C(C)=O)c4O)c(Cc4c(O)c(C)cc(C(C)=O)c4O)c3c2)cc(OC)c1OC | 8 µM
CC(=O)c1cc(C)c(O)c(Cc2[nH]c3ccc(F)cc3c2Cc2c(O)c(C)cc(C(C)=O)c2O)c1O | > 30 µM
CC(=O)c1cc(C)c(O)c(Cc2[nH]c3ccc(-c4ccc(F)cc4)cc3c2Cc2c(O)c(C)cc(C(C)=O)c2O)c1O | > 30 µM
CC(=O)c1cc(C)c(O)c(Cc2[nH]c3ccc(-c4ccc5c(c4)OCCO5)cc3c2Cc2c(O)c(C)cc(C(C)=O)c2O)c1O | 13 µM
CC(=O)c1cc(C)c(O)c(Cc2[nH]c3ccc(-c4ccsc4)cc3c2Cc2c(O)c(C)cc(C(C)=O)c2O)c1O | > 30 µM
CC(=O)c1cc(C)c(O)c(Cc2[nH]c3ccc(/C=C/c4ccccc4)cc3c2Cc2c(O)c(C)cc(C(C)=O)c2O)c1O | > 30 µM
CC(=O)c1cc(C)c(O)c(Cc2c(Cc3c(O)c(C)cc(C(C)=O)c3O)n(Cc3ccc(F)cc3)c3ccccc23)c1O | > 30 µM
COc1ccc2c(Cc3c(O)c(C)cc(C(C)=O)c3O)c(Cc3c(O)c(C)cc(C(C)=O)c3O)[nH]c2c1 | 12.6 µM
CC(=O)c1cc(C)c(O)c(Cc2[nH]c3cc(-c4ccc(C(F)(F)F)cc4)ccc3c2Cc2c(O)c(C)cc(C(C)=O)c2O)c1O | 25 µM
CC(=O)c1cc(C)c(O)c(Cc2[nH]c3ccc(-c4ccccc4)cc3c2Cc2c(O)c(C)cc(C(C)=O)c2O)c1O | 26 µM
CC(=O)c1cc(C)c(O)c(Cc2[nH]c3cc(-c4cc(C)cc(C)c4)ccc3c2Cc2c(O)c(C)cc(C(C)=O)c2O)c1O | 10.1 µM
CCOC(=O)C1=C[C@@H](OC(CC)CC)[C@H](NC(C)=O)[C@@H](N)C1 [OSELTAMIVIR] | 11.4 µM
